This note sets out measurements from US4616028A, “Substituted 2,3,4,9-tetrahydro-1H-carbazole-1-acetic acid derivatives, compositions and use” (American Home Products Corporation, priority 1985, dated 1986).

Structures are written as SMILES. Structures can show the parent of a compound that is named as a salt.

In one assay the test system is Adjuvant Edema. In words: Preventative Adjuvant Edema (Freund's complete adjuvant, hind paw volume). Particulars: po; for ED50: ED50, rat (second results table). In kind it is in vivo, rat (male Sprague Dawley). As for the experimental part:
This test is a primary screen for anti-inflammatory drugs.
Male Sprague Dawley rats (180-200 g) are used. The animals have free access water but food is withdrawn 18 hours before testing.
Drug Preparations and Administration:
Freund's complete adjuvant is prepared by suspending 5 mg killed and dried Mycobacterium butyricum (Difco) in 1 ml liquid paraffin. The test compounds are dissolved in distilled water or suspended in distilled water with a few drops of Tween 80 according to their solubility. For primary screening all drugs are administrated by gastric lavage at the arbitrary dosage of 100 mg/kg, p.o. in a volume of 0.5 ml/100 g body weight to groups of 10 animals.
The method is essentially that described by Wax et al., J. Pharmacol. Exp. Ther., 192, 166-171 (1975). Groups of rats are injected intradermally in the left hind paw with 0.1 ml of Freund's complete adjuvant. The test compound or vehicle is administrated before the adjuvant, 24 hours and 48 hours after the adjuvant (day 0, 1 and 2). The injected hind paw volume is measured before the injection of adjuvant and 24 hrs. after the last drug administration (day 3) by means of a plethysmometer (Buxco Electronics Inc.). The difference between then hind paw volume on day 0 and day 3 represents the edema volume. Phenylbutazone (50 mg/kg, p.o.) is included as a positive control.
The mean edema volume (expressed as ml±SEM) is calculated for each group and the percentage protection conferred by the drug is calculated:
where c is the mean edema volume for the untreated controls and t is the mean edema volume for the drug treated group.

For another assay, the system named is inflamed paw. In words: Paw Pressure Test in the Rat (Freund's adjuvant inflamed paw, pain threshold). Format: in vivo, rat (male Sprague Dawley). Particulars: for ED50: po, ED50, rat (second results table). An excerpt: A still further test used to determine the utility of the compounds of the present invention is designated: PAW PRESSURE TEST IN THE RAT
The objective of this test is to assess the potency of peripheral and central acting drugs in inhibiting the reaction of rats to painful stimulation applied to an inflamed paw.
Male Sprague Dawley rats (180-200 g) are used. The animals are fasted overnight prior to drug administration.
(§1) Drug Preparation and Administration:
Freund's Complete Adjuvant (FCA) is prepared by suspending 5 mg killed and dried mycobacterium butyricum (Difco) in 1 ml liquid paraffin. The test compounds are dissolved, or suspended with a few drops of Tween 80, in distilled water according to their solubility. They are administered by gastric gavage in a volume of 0.5 ml/100 g body weight to groups of 10 animals.
Ten rats are used per group. The method is essentially that described by Randall, et al., Arch. Int. Pharmacodyn. 111, 409 (1957) and the apparatus which is used to apply pressure to the paw (Analgesy-meter for the rat paw, Ugo Basile from Coulbourn Instruments) is a modification of that described by Gilfoil et al., J. Pharmacol, 142, 1 (1963). The instrument is basically a device which exerts a force that increases at a constant rate. The force is continuously monitored by a pointer moving along a linear scale and is measured in grams. The inflammatory reaction is induced in the left hind paw of rats by injecting 0.1 ml of Freund's adjuvant intradermally. The test compound or vehicle is administered 24 hours after the adjuvant. Prior to drug administration the rats are selected for their paw sensitivity. Rats responding to a pain threshold greater than 10 g applied to the inflamed paw are rejected. The pain threshold (vocalization) is determined 1 and 3 hours later in the inflamed paw and the normal paw of the treated and control groups. The higher of the 2 readings will be considered as representative of the drug effect on the pain threshold.
Presentation of results and Criteria for Activity:
Each animal which has a reading 1.5 times greater than the mean reading of the control-group will be considered as responsive to treatment. The number of animals showing an analgesic effect is then determined in each group.
The ED50 (dose which causes analgesia in 50% of the animals) using at least 3 doses is then determined, by the method described in Litchfield et al., J. Pharmacol. Exp. Ther., 96, 99 (1949).

Another assay has as its system Phenylquinone Writhing. Put plainly: Phenylquinone-induced writhing in mice. Format: in vivo, mouse (male Swiss albino). Particulars: Mus musculus, po; for ED50: ED50, mice (second results table). As for the experimental part:
A further test used to determine the utility of the compounds of the present invention is designated: DRUG EFFECTS ON PHENYLQUINONE-INDUCED WRITHING IN MICE […]
The objective of this test is to determine the ability of test drugs to inhibit the nociceptive (pain) response of mice injected with a chemical irritant. This test is a primary screen for both peripheral and centrally acting analgesic drugs.
Male Swiss albino mice (15-25 g). The animals are fasted for 18 hours prior to use but have free access to water.
as §1
Drugs are dissolved or suspended according to their solubility in 0.5% methyl cellulose or 0.5% Tween 80. They are administered by gastric lavage in a volume of 5 ml/kg. For primary screening all drugs are administered at the arbitrary dosage of 200 mg/kg, p.o. to a group of 10 mice.
A modification of the method of Siegmund at el., Proc. Soc. Exp. Biol. Med., 95, 729-731 (1957) is used. Groups of 5 mice are dosed with the test compound or vehicle control. Sixty minutes later the animals are injected i.p. with 0.3 ml/20 g body weight of a 0.02% solution of phenylquinone (PBQ; 2-phenyl-1,4-benzoquinone) and placed in individual observation boxes. The numer of writhing or abdominal squirming movements made by each mouse during the following 15 min. period is counted. The experiment is repeated with another group of 5 mice and the mean number of writhes per mouse for a group of 10 mice is calculated.
Drug treated and vehicle-treated control groups are compared and the percentage protection conferred by the drug is calculated:
Percentage protection=(c-t)100/c […]
where c=mean number of writhes in the control group where t=mean number of writhes in the test drug group
(In general: Writhing tests count abdominal constrictions after an irritant is injected.)

The mark [1] stands for this setting: 72 h, rat (second results table), read-out: Preventative Adjuvant Edema percent inhibition.
The mark [2] stands for this setting: mice (second results table), read-out: Phenylquinone Writhing in Mice percent inhibition.

As for `C=CC[C@H]1CC[C@](CC)(CC(=O)O)c2[nH]c3c(CC)cccc3c21` (relative stereo) [Example 4], in the assay on Adjuvant Edema (setting [1]), the inhibition in vivo at 25 mg/kg turned out to be 35%. Besides, the 50% effective dose (ED50) (usually the dose at which the effect has come halfway, by size or by number of responders) with inflamed paw was 0.02 mg/kg. In addition, the inhibition in vivo at 100 mg/kg in the assay with Phenylquinone Writhing (dose 100 mg/kg, mice (second results table), read-out: Phenylquinone Writhing in Mice percent inhibition) was determined as 9%.

With `C=CC[C@@H]1CC[C@](CC)(CC(=O)O)c2[nH]c3c(CCC)cccc3c21` (relative stereo) [Example 5], the inhibition in vivo at 10 mg/kg in the assay on Adjuvant Edema (setting [1]) was 29%. For the same molecule, in the assay with Adjuvant Edema (setting [1]), the inhibition in vivo at 25 mg/kg came to 39%. Moreover, the ED50 worked out at 0.009 mg/kg with inflamed paw and 28.7 mg/kg in the assay on Phenylquinone Writhing.

For `C=CC[C@@H]1CC[C@](CC)(CC(=O)O)c2[nH]c3ccc(CC)cc3c21` (relative stereo) [Example 6], the inhibition in vivo at 10 mg/kg with Adjuvant Edema (setting [1]) came out at 36%. The inhibition in vivo at 25 mg/kg with Adjuvant Edema (setting [1]) was found to be 21%. Moreover, the ED50 in the assay with inflamed paw is 0.01 mg/kg; with Phenylquinone Writhing, 103 mg/kg.

As to `C=CC[C@@H]1CC[C@](CC)(CC(=O)O)c2[nH]c3cc(CC)ccc3c21` (relative stereo) [Example 7], the inhibition in vivo at 25 mg/kg in the assay on Adjuvant Edema (setting [1]) was determined as 36%. Also, the ED50 in the assay on inflamed paw came out at 0.01 mg/kg; with Phenylquinone Writhing, 10 mg/kg.

On to `C=CC[C@@H]1CC[C@](CC)(CC(=O)O)c2[nH]c3ccc(CCCC)cc3c21` (relative stereo) [Example 8], for which the inhibition in vivo at 5 mg/kg in the assay with Adjuvant Edema (72 h, dose 5 mg/kg, rat (second results table), read-out: Preventative Adjuvant Edema percent inhibition) turned out to be 56%. The ED50 with inflamed paw was 0.2 mg/kg; with Phenylquinone Writhing it was 10.6 mg/kg.

As to `C=CC[C@@H]1CC[C@](CC)(CC(=O)O)c2[nH]c3c(C)cccc3c21` (relative stereo) [Example 11, cis-1-ethyl-2,3,4,9-tetrahydro-8-methyl-4-(2-propenyl)-1H-carbazole-1-acetic acid], the ED50 with Adjuvant Edema was 8.5 mg/kg; in the assay on inflamed paw it was 0.33 mg/kg; in the assay with Phenylquinone Writhing, 8.3 mg/kg.

Regarding `C=CC[C@@H]1CC[C@](CC)(CC(=O)O)c2[nH]c3c(Cl)cccc3c21` (relative stereo) [Example 16], the results for the ED50 in the assay with Adjuvant Edema, in the assay with inflamed paw and with Phenylquinone Writhing were 13 mg/kg, 0.89 mg/kg and 11 mg/kg, respectively.

For the molecule `C=CC[C@@H]1CC[C@](CC)(CC(=O)O)c2[nH]c3cc(Cl)ccc3c21` (relative stereo) [Example 20], the ED50 was found to be 5.4 mg/kg with Adjuvant Edema, 0.38 mg/kg with inflamed paw and 5.1 mg/kg in the assay on Phenylquinone Writhing.

`C=CC[C@@H]1CC[C@](CC)(CC(=O)O)c2[nH]c3c(C)c(F)ccc3c21` (relative stereo) [Example 29]: the ED50 in the assay with Adjuvant Edema came out at 6.4 mg/kg; in the assay on inflamed paw, 0.1 mg/kg; in the assay with Phenylquinone Writhing, 12.3 mg/kg.

With `C=CC[C@@H]1CC[C@](CC)(CC(=O)O)c2[nH]c3c(C)c(Cl)ccc3c21` (relative stereo) [Example 30, cis-7-chloro-1-ethyl-2,3,4,9-tetrahydro-8-methyl-4-(2-propenyl)-1H-carbazole-1-acetic acid], the ED50 worked out at 15 mg/kg with Adjuvant Edema, 0.007 mg/kg in the assay with inflamed paw and 2.6 mg/kg with Phenylquinone Writhing.

For the molecule `C=CC[C@@H]1CC[C@](CC)(CC(=O)O)c2[nH]c3c(C)ccc(C)c3c21` (relative stereo) [Example 31], in the assay with Adjuvant Edema (setting [1]), the inhibition in vivo at 25 mg/kg was found to be 42%. The median effective dose (ED50) in the assay on inflamed paw came to 0.3 mg/kg; in the assay on Phenylquinone Writhing it was 2.3 mg/kg.

Take `C=CC[C@@H]1CC[C@](CC)(CC(=O)O)c2[nH]c3c(Cl)c(Cl)ccc3c21` (relative stereo) [Example 32, cis-7,8-dichloro-1-ethyl-2,3,4,9-tetrahydro-4-(2-propenyl)-1H-carbazole-1-acetic acid]: the inhibition in vivo at 25 mg/kg with Adjuvant Edema (setting [1]) was found to be 22%. The figures for the ED50 in the assay on inflamed paw and in the assay on Phenylquinone Writhing were 0.08 mg/kg and 2 mg/kg, respectively.

For `C=CC[C@@H]1CC[C@](CC)(CC(=O)O)c2[nH]c3c(Br)ccc(C)c3c21` (relative stereo) [Example 33], the inhibition in vivo at 25 mg/kg in the assay on Adjuvant Edema (setting [1]) came out at 27%. For the same molecule, the ED50 with inflamed paw came to 0.93 mg/kg; in the assay with Phenylquinone Writhing, 4.5 mg/kg.

Turning to `C=CC[C@@H]1CC[C@](CC)(CC(=O)O)c2[nH]c3c(Cl)ccc(C)c3c21` (relative stereo) [Example 34], the 50% effective dose (ED50) amounted to 2.6 mg/kg with Adjuvant Edema, 0.46 mg/kg with inflamed paw and 7.6 mg/kg in the assay with Phenylquinone Writhing.

As to `C=CCC1CCC(C)(CC(=O)O)c2[nH]c3ccccc3c21` (stereo not drawn) [Example 12], the ED50 was determined as 6 mg/kg in the assay on Adjuvant Edema, 1.9 mg/kg in the assay on inflamed paw and 18.7 mg/kg in the assay on Phenylquinone Writhing.

As to `C=CC[C@@H]1CC[C@](CC)(CC(=O)O)c2[nH]c3c(CC)cccc3c21` [Example 44, (1R-cis)-1,8-Diethyl-2,3,4,9-tetrahydro-4-(2-propenyl)-1H-carbazole-1-acetic Acid Benzenemethanamine Salt (1:1)], the inhibition in vivo at 25 mg/kg is 0% in the assay with Adjuvant Edema (setting [1]) and 5% in the assay on Phenylquinone Writhing (setting [2]). Further, the “Paw Pressure Test in the Rat percent inhibition” value with inflamed paw (dose 1 mg/kg) is 30%; in the assay with inflamed paw (dose 5 mg/kg), 40%.

Take `C=CC[C@H]1CC[C@@](CC)(CC(=O)O)c2[nH]c3c(CC)cccc3c21` [Example 45, (1S-cis)-1,8-Diethyl-2,3,4,9-tetrahydro-4-(2-propenyl)-1H-carbazole-1-acetic Acid Benzenemethanamine Salt (1:1)]: the values for the inhibition in vivo at 25 mg/kg with Adjuvant Edema (setting [1]) and in the assay with Phenylquinone Writhing (setting [2]) were 54% and 94%, respectively. Further, the ED50 in the assay with inflamed paw stood at 0.011 mg/kg.
